# From ChEMBL document CHEMBL3885881, “DrugMatrix”
# Species: Rattus norvegicus
# Experiment: DrugMatrix - Regimen: Daily Repeat
# Type: toxicity, organism-based, Sprague-Dawley
# Set-up: regimen Daily Repeat, gender Male, age 6-8 weeks
# Conditions: in vivo, po, route oral GAVAGE, vehicle 100 % SALINE; for ABSOLUTE BASOPHIL / ABSOLUTE EOSINOPHIL / ABSOLUTE LYMPHOCYTE / ABSOLUTE MONOCYTE / ABSOLUTE SEGMENTED NEUTROPHIL / BASOPHIL / EOSINOPHIL / ERYTHROCYTE COUNT / HEMATOCRIT / HEMOGLOBIN / LEUKOCYTE COUNT / LYMPHOCYTE / MEAN CORPUSCULAR HEMOGLOBIN / MEAN CORPUSCULAR HEMOGLOBIN CONCENTRATION / MEAN CORPUSCULAR VOLUME / MONOCYTE / NEUTROPHIL / NUCLEATED RED BLOOD CELLS / PLATELET COUNT: tissue Blood; for ALANINE AMINOTRANSFERASE / ALBUMIN / ALKALINE PHOSPHATASE / ASPARTATE AMINOTRANSFERASE / BLOOD UREA NITROGEN / CARBON DIOXIDE / CHLORIDE / CHOLESTEROL / CREATINE PHOSPHOKINASE / CREATININE / GLUCOSE / LACTATE DEHYDROGENASE / LIPASE / PHOSPHORUS / POTASSIUM / SODIUM / TOTAL BILIRUBIN / TOTAL PROTEIN / URIC ACID: tissue Plasma
# [1] = 10 mg/kg, […], dose level Low, time 7 day
# [2] = 30 mg/kg, 72 h, dose level High, time 3 day
# [3] = 30 mg/kg, […], dose level High, time 7 day
compound,measurement,setting,value
O=[As][O-].[Na+] [SODIUM ARSENITE],ABSOLUTE BASOPHIL,[1],0 CELLS/uL
same,ABSOLUTE EOSINOPHIL,[1],0 CELLS/uL
same,ABSOLUTE LYMPHOCYTE,[1],8882.33 CELLS/uL
same,ABSOLUTE MONOCYTE,[1],292.83 CELLS/uL
same,ABSOLUTE SEGMENTED NEUTROPHIL,[1],1158.17 CELLS/uL
same,BASOPHIL,[1],0%
same,EOSINOPHIL,[1],0%
same,ERYTHROCYTE COUNT,[1],5.16 x10E6/uL
same,HEMATOCRIT,[1],33.38%
same,HEMOGLOBIN,[1],13.23 G/DL
same,LEUKOCYTE COUNT,[1],10.33 x10E3/uL
same,LYMPHOCYTE,[1],86.17%
same,MEAN CORPUSCULAR HEMOGLOBIN,[1],25.68 pg
same,MEAN CORPUSCULAR HEMOGLOBIN CONCENTRATION,[1],39.65 G/DL
same,MEAN CORPUSCULAR VOLUME,[1],64.67 fL
same,MONOCYTE,[1],2.83%
same,NEUTROPHIL,[1],11%
same,NUCLEATED RED BLOOD CELLS,[1],0 /100WBC
same,PLATELET COUNT,[1],1191.67 x10E3/uL
same,ALANINE AMINOTRANSFERASE,[1],43 u/L
same,ALBUMIN,[1],4.45 G/DL
same,ALKALINE PHOSPHATASE,[1],255.83 u/L
same,ASPARTATE AMINOTRANSFERASE,[1],72.83 u/L
same,BLOOD UREA NITROGEN,[1],13 mg/dL
same,CARBON DIOXIDE,[1],29.83 mmol/L
same,CHLORIDE,[1],98.83 MEQ/L
same,CHOLESTEROL,[1],69.17 mg/dL
same,CREATINE PHOSPHOKINASE,[1],248.67 u/L
same,CREATININE,[1],0.18 mg/dL
same,GLUCOSE,[1],139.17 mg/dL
same,LACTATE DEHYDROGENASE,[1],91.83 u/L
same,LIPASE,[1],10.5 u/L
same,PHOSPHORUS,[1],11.75 mg/dL
same,POTASSIUM,[1],6.25 MEQ/L
same,SODIUM,[1],143.22 MEQ/L
same,TOTAL BILIRUBIN,[1],0.15 mg/dL
same,TOTAL PROTEIN,[1],5.95 G/DL
same,URIC ACID,[1],0.93 mg/dL
same,ABSOLUTE BASOPHIL,[2],0 CELLS/uL
same,ABSOLUTE EOSINOPHIL,[2],24.17 CELLS/uL
same,ABSOLUTE LYMPHOCYTE,[2],11880.83 CELLS/uL
same,ABSOLUTE MONOCYTE,[2],220.67 CELLS/uL
same,ABSOLUTE SEGMENTED NEUTROPHIL,[2],724.33 CELLS/uL
same,BASOPHIL,[2],0%
same,EOSINOPHIL,[2],0.17%
same,ERYTHROCYTE COUNT,[2],5.56 x10E6/uL
same,HEMATOCRIT,[2],36.35%
same,HEMOGLOBIN,[2],12.9 G/DL
same,LEUKOCYTE COUNT,[2],12.85 x10E3/uL
same,LYMPHOCYTE,[2],92.17%
same,MEAN CORPUSCULAR HEMOGLOBIN,[2],23.27 pg
same,MEAN CORPUSCULAR HEMOGLOBIN CONCENTRATION,[2],35.48 G/DL
same,MEAN CORPUSCULAR VOLUME,[2],65.6 fL
same,MONOCYTE,[2],1.83%
same,NEUTROPHIL,[2],5.83%
same,NUCLEATED RED BLOOD CELLS,[2],0 /100WBC
same,PLATELET COUNT,[2],1116 x10E3/uL
same,ALANINE AMINOTRANSFERASE,[2],34.67 u/L
same,ALBUMIN,[2],3.6 G/DL
same,ALKALINE PHOSPHATASE,[2],172.83 u/L
same,ASPARTATE AMINOTRANSFERASE,[2],76.5 u/L
same,BLOOD UREA NITROGEN,[2],11.33 mg/dL
same,CARBON DIOXIDE,[2],26.83 mmol/L
same,CHLORIDE,[2],102.5 MEQ/L
same,CHOLESTEROL,[2],75 mg/dL
same,CREATINE PHOSPHOKINASE,[2],194.17 u/L
same,CREATININE,[2],0.16 mg/dL
same,GLUCOSE,[2],125.67 mg/dL
same,LACTATE DEHYDROGENASE,[2],103.33 u/L
same,LIPASE,[2],11.83 u/L
same,PHOSPHORUS,[2],9.52 mg/dL
same,POTASSIUM,[2],5.42 MEQ/L
same,SODIUM,[2],143 MEQ/L
same,TOTAL BILIRUBIN,[2],0.18 mg/dL
same,TOTAL PROTEIN,[2],5.17 G/DL
same,URIC ACID,[2],0.68 mg/dL
same,ABSOLUTE BASOPHIL,[3],0 CELLS/uL
same,ABSOLUTE EOSINOPHIL,[3],81.83 CELLS/uL
same,ABSOLUTE LYMPHOCYTE,[3],12174.33 CELLS/uL
same,ABSOLUTE MONOCYTE,[3],445.83 CELLS/uL
same,ABSOLUTE SEGMENTED NEUTROPHIL,[3],2681.33 CELLS/uL
same,BASOPHIL,[3],0%
same,EOSINOPHIL,[3],0.5%
same,ERYTHROCYTE COUNT,[3],5.27 x10E6/uL
same,HEMATOCRIT,[3],32.5%
same,HEMOGLOBIN,[3],12.83 G/DL
same,LEUKOCYTE COUNT,[3],15.38 x10E3/uL
same,LYMPHOCYTE,[3],81%
same,MEAN CORPUSCULAR HEMOGLOBIN,[3],24.38 pg
same,MEAN CORPUSCULAR HEMOGLOBIN CONCENTRATION,[3],39.47 G/DL
same,MEAN CORPUSCULAR VOLUME,[3],61.75 fL
same,MONOCYTE,[3],2.67%
same,NEUTROPHIL,[3],15.83%
same,NUCLEATED RED BLOOD CELLS,[3],0 /100WBC
same,PLATELET COUNT,[3],966.33 x10E3/uL
same,ALANINE AMINOTRANSFERASE,[3],39.67 u/L
same,ALBUMIN,[3],4.02 G/DL
same,ALKALINE PHOSPHATASE,[3],141.83 u/L
same,ASPARTATE AMINOTRANSFERASE,[3],90 u/L
same,BLOOD UREA NITROGEN,[3],16 mg/dL
same,CARBON DIOXIDE,[3],27 mmol/L
same,CHLORIDE,[3],100.17 MEQ/L
same,CHOLESTEROL,[3],65.83 mg/dL
same,CREATINE PHOSPHOKINASE,[3],152.83 u/L
same,CREATININE,[3],0.14 mg/dL
same,GLUCOSE,[3],126.83 mg/dL
same,LACTATE DEHYDROGENASE,[3],98.33 u/L
same,LIPASE,[3],9.83 u/L
same,PHOSPHORUS,[3],9.15 mg/dL
same,POTASSIUM,[3],5.46 MEQ/L
same,SODIUM,[3],142.78 MEQ/L
same,TOTAL BILIRUBIN,[3],0.13 mg/dL
same,TOTAL PROTEIN,[3],5.38 G/DL
same,URIC ACID,[3],0.55 mg/dL
